# Tests used:
# [1] = system: Paracentrotus lividus; experiment: Antimitotic activity against sea urchin embryo assessed as cleavage alteration measured 2.5 to 5.5 hrs post-fertilization using compound stored for 1 hr in 96% EtOH at room temperature by light microscopy analysis; type: functional; settings: time hrs 2.5-5.5
# [2] = system: Paracentrotus lividus; experiment: Antimitotic activity against sea urchin embryo assessed as cleavage arrest measured 2.5 to 5.5 hrs post-fertilization using compound stored for 1 hr in 96% EtOH at room temperature by light microscopy analysis; type: functional; settings: time hrs 2.5-5.5
# [3] = system: Paracentrotus lividus; experiment: Induction of microtubule destabilization in sea urchin embryo assessed as embryo spinning measured after 0.5 to 20 hrs; type: tissue-based; settings: time hrs 0.5-20
# [4] = system: Paracentrotus lividus; experiment: Antimitotic activity against sea urchin embryo assessed as cleavage alteration measured 2.5 to 6 hrs post-fertilization by light microscopy analysis; type: functional; settings: time hrs 2.5-6
# [5] = system: SK-OV-3; experiment: Cytotoxicity against human SK-OV-3 cells assessed as cell growth inhibition; type: functional, cell-based
# [6] = system: Paracentrotus lividus; experiment: Antimitotic activity against sea urchin embryo assessed as cleavage arrest measured 2.5 to 6 hrs post-fertilization by light microscopy analysis; type: functional; settings: time hrs 2.5-6
# [7] = system: PC-3; experiment: Cytotoxicity against human PC-3 cells assessed as cell growth inhibition; type: functional, cell-based
# [8] = system: DU-145; experiment: Cytotoxicity against human DU-145 cells assessed as cell growth inhibition; type: functional, cell-based
# [9] = system: A549; experiment: Cytotoxicity against human A549 cells assessed as cell growth inhibition; type: functional, cell-based
# [10] = system: T47D; experiment: Cytotoxicity against human T47D cells assessed as cell growth inhibition; type: functional, cell-based
# [11] = Aggregation property of the compound in water; type: physicochemical; settings: buffer
# [12] = system: HCT-116; experiment: Cytotoxicity against human HCT-116 cells assessed as cell growth inhibition; type: functional, cell-based
# [13] = system: MCF7; experiment: Cytotoxicity against human MCF7 cells assessed as cell growth inhibition measured after 24 to 48 hrs by SRB assay; type: functional, cell-based
# [14] = Aqueous solubility of the compound at physiological pH by H-NMR analysis; type: physicochemical; settings: aqueous solution
# [15] = system: CFPAC-1; experiment: Cytotoxicity against human CFPAC-1 cells assessed as cell growth inhibition measured after 72 hrs by MTT assay; type: functional, cell-based; settings: CFPAC-1, 72 h
# [16] = system: PANC-1; experiment: Cytotoxicity against human PANC-1 cells assessed as cell growth inhibition measured after 72 hrs by MTT assay; type: functional, cell-based; settings: PANC-1, 72 h
# [17] = system: SiHa; experiment: Cytotoxicity against human SiHa cells assessed as cell growth inhibition; type: functional, cell-based
# [18] = system: Ca-Ski; experiment: Cytotoxicity against human Ca-Ski cells assessed as cell growth inhibition; type: functional, cell-based
# [19] = system: BXPC-3; experiment: Cytotoxicity against human BXPC-3 cells assessed as cell growth inhibition measured after 72 hrs by MTT assay; type: functional, cell-based; settings: BXPC-3, 72 h
# [20] = system: HeLa; experiment: Cytotoxicity against human HeLa cells assessed as cell growth inhibition; type: functional, cell-based
# [21] = system: Paracentrotus lividus; experiment: Antimitotic activity against sea urchin embryo assessed as cleavage arrest measured 2.5 to 5.5 hrs post-fertilization using compound stored for 1 month in 96% EtOH at room temperature by light microscopy analysis; type: functional; settings: time hrs 2.5-5.5
# [22] = system: Paracentrotus lividus; experiment: Antimitotic activity against sea urchin embryo assessed as cleavage alteration measured 2.5 to 5.5 hrs post-fertilization using compound stored for 2 days in 96% EtOH at room temperature by light microscopy analysis; type: functional; settings: time hrs 2.5-5.5
# [23] = system: Paracentrotus lividus; experiment: Antimitotic activity against sea urchin embryo assessed as cleavage alteration measured 2.5 to 5.5 hrs post-fertilization using compound stored for 4 days in 96% EtOH at room temperature by light microscopy analysis; type: functional; settings: time hrs 2.5-5.5
# [24] = system: Paracentrotus lividus; experiment: Antimitotic activity against sea urchin embryo assessed as cleavage arrest measured 2.5 to 5.5 hrs post-fertilization using compound stored for 2 days in 96% EtOH at room temperature by light microscopy analysis; type: functional; settings: time hrs 2.5-5.5
# [25] = system: Paracentrotus lividus; experiment: Antimitotic activity against sea urchin embryo assessed as cleavage alteration measured 2.5 to 5.5 hrs post-fertilization using compound stored for 1 month in 96% EtOH at room temperature by light microscopy analysis; type: functional; settings: time hrs 2.5-5.5
# [26] = system: Paracentrotus lividus; experiment: Antimitotic activity against sea urchin embryo assessed as cleavage arrest measured 2.5 to 5.5 hrs post-fertilization using compound stored for 4 days in 96% EtOH at room temperature by light microscopy analysis; type: functional; settings: time hrs 2.5-5.5
# [27] = Cytotoxicity against human KKU-100 cells assessed as cell growth inhibition after 48 hrs; type: functional, cell-based; settings: KKU100, 48 h
# [28] = system: HFF; experiment: Cytotoxicity against human HFF cells assessed as cell growth inhibition; type: cell-based
# [29] = Selectivity ratio of IC50 for human HFF cells to IC50 for human A-375 cells assessed as cell growth inhibition
# [30] = system: A-375; experiment: Cytotoxicity against human A-375 cells assessed as cell growth inhibition; type: functional, cell-based
# [31] = system: Paracentrotus lividus; experiment: Antimitotic activity against sea urchin embryo assessed as cleavage alteration measured 3 to 6 hrs post-fertilization by light microscopy analysis; type: functional; settings: time hrs 3-6
# [32] = system: Paracentrotus lividus; experiment: Antimitotic activity against sea urchin embryo assessed as cleavage arrest measured 3 to 6 hrs post-fertilization by light microscopy analysis; type: functional; settings: time hrs 3-6
# [33] = system: Paracentrotus lividus; experiment: Antimitotic activity against sea urchin embryo assessed as cleavage arrest measured 2.5 to 5.5 hrs post-fertilization using compound stored for 2.5 days in 96% EtOH at room temperature by light microscopy analysis; type: functional; settings: time hrs 2.5-5.5
# [34] = system: Paracentrotus lividus; experiment: Antimitotic activity against sea urchin embryo assessed as cleavage alteration measured 2.5 to 5.5 hrs post-fertilization using compound stored for 4.5 days in 96% EtOH at room temperature by light microscopy analysis; type: functional; settings: time hrs 2.5-5.5
# [35] = system: Paracentrotus lividus; experiment: Antimitotic activity against sea urchin embryo assessed as cleavage alteration measured 2.5 to 5.5 hrs post-fertilization using compound stored for 2.5 days in 96% EtOH at room temperature by light microscopy analysis; type: functional; settings: time hrs 2.5-5.5
# [36] = system: Paracentrotus lividus; experiment: Antimitotic activity against sea urchin embryo assessed as cleavage arrest measured 2.5 to 5.5 hrs post-fertilization using compound stored for 13 hrs in 96% EtOH at room temperature by light microscopy analysis; type: functional; settings: time hrs 2.5-5.5
# [37] = system: Paracentrotus lividus; experiment: Antimitotic activity against sea urchin embryo assessed as cleavage alteration measured 2.5 to 5.5 hrs post-fertilization using compound stored for 13 hrs in 96% EtOH at room temperature by light microscopy analysis; type: functional; settings: time hrs 2.5-5.5
# [38] = system: Paracentrotus lividus; experiment: Antimitotic activity against sea urchin embryo assessed as cleavage arrest measured 2.5 to 5.5 hrs post-fertilization using compound stored for 4.5 days in 96% EtOH at room temperature by light microscopy analysis; type: functional; settings: time hrs 2.5-5.5
smiles,measurement,setting,value
CCOP(=O)(OCC)C(Cn1cc(C(=O)C(=O)Nc2ccc3c(c2)OCCO3)c2ccccc21)P(=O)(OCC)OCC,EC,[1],0.5 µM
same,EC,[2],0.2 µM
same,EC,[3],0.1 µM
O=C(Nc1ccncc1)C(=O)c1cn(Cc2ccc(Cl)cc2)c2ccccc12 [INDIBULIN],EC,[4],0.01 µM
same,IC50,[5],200 nM
same,EC,[6],0.02 µM
same,IC50,[7],40 nM
same,IC50,[8],50 nM
same,EC,[3],0.1 µM
same,IC50,[9],398 nM
same,IC50,[10],40 nM
same,CAC,[11],0.00039 mg/mL
same,IC50,[12],50 nM
NCCCC(O)(P(=O)(O)O)P(=O)(O)O [ALENDRONIC ACID],IC50,[13],69500 nM
O=P(O)(O)C(O)(Cc1cccnc1)P(=O)(O)O [RISEDRONIC ACID],IC50,[13],248000 nM
COc1ccc(NC(=O)C(=O)c2cn(CC(P(=O)([O-])[O-])P(=O)([O-])[O-])c3ccccc23)cc1.[Na+].[Na+].[Na+].[Na+],solubility,[14],10000 µg/mL
O=P(O)(O)C(O)(Cn1ccnc1)P(=O)(O)O [ZOLEDRONIC ACID],IC50,[15],10000 nM
same,IC50,[16],10000 nM
same,IC50,[17],10000 nM
same,IC50,[18],10000 nM
same,IC50,[19],10000 nM
same,IC50,[20],10000 nM
CCOP(=O)(OCC)C(Cn1cc(C(=O)C(=O)Nc2ccc(OC)cc2)c2ccccc21)P(=O)(OCC)OCC,EC,[21],0.005 µM
same,EC,[22],0.02 µM
same,EC,[1],0.5 µM
same,EC,[23],0.005 µM
same,EC,[24],0.1 µM
same,EC,[2],0.2 µM
same,EC,[3],0.2 µM
same,EC,[25],0.002 µM
same,EC,[26],0.02 µM
NCCC(O)(P(=O)(O)O)P(=O)(O)O [PAMIDRONIC ACID],IC50,[13],22900 nM
same,IC50,[27],147000 nM
COc1ccc(NC(=O)C(=O)c2cn(CC(P(=O)(O)O)P(=O)(O)O)c3ccccc23)cc1 [listing 1 of 2 here],EC,[4],0.001 µM
same,IC50,[5],3230 nM
same,EC,[6],0.002 µM
same,IC50,[7],7540 nM
same,IC50,[8],478 nM
same,IC50,[28],2390 nM
same,Ratio IC50,[29],70
same,IC50,[9],223 nM
same,IC50,[30],34 nM
same,IC50,[10],658 nM
same,IC50,[12],222 nM
CCOP(=O)(OCC)C(Cn1cc(C(=O)C(=O)Nc2ccc(OC)cc2)c2ccc(F)cc21)P(=O)(OCC)OCC,EC,[1],0.5 µM
same,EC,[2],0.2 µM
same,EC,[3],0.5 µM
COc1ccc(NC(=O)C(=O)c2c[nH]c3cc(F)ccc23)cc1,EC,[31],0.001 µM
same,EC,[32],0.005 µM
same,EC,[3],1 µM
O=C(Nc1ccc2c(c1)OCCO2)C(=O)c1c[nH]c2ccccc12,EC,[31],0.002 µM
same,EC,[32],0.005 µM
same,EC,[3],0.02 µM
O=C(Nc1ccc2c(c1)OCCO2)C(=O)c1c[nH]c2cc(F)ccc12,EC,[31],0.005 µM
same,EC,[32],0.02 µM
same,EC,[3],0.5 µM
CCOP(=O)(OCC)C(Cn1cc(C(=O)C(=O)Nc2ccc3c(c2)OCCO3)c2ccc(F)cc21)P(=O)(OCC)OCC,EC,[33],0.02 µM
same,EC,[34],<0.01 µM
same,EC,[1],0.5 µM
same,EC,[35],<0.02 µM
same,EC,[2],0.2 µM
same,EC,[36],0.05 µM
same,EC,[3],0.1 µM
same,EC,[37],0.02 µM
same,EC,[38],0.01 µM
CCOP(=O)(OCC)C(Cn1cc(C(=O)C(=O)O)c2ccc(F)cc21)P(=O)(OCC)OCC,EC,[4],>4 µM
same,EC,[6],>4 µM
same,EC,[3],> 4 µM
COc1ccc(NC(=O)C(=O)c2cn(CC(P(=O)(O)O)P(=O)(O)O)c3ccccc23)cc1 [listing 2 of 2 here],EC,[3],0.005 µM
CCOP(=O)(OCC)C(Cn1cc(C(=O)C(=O)Nc2cccc(OC)c2)c2ccc(F)cc21)P(=O)(OCC)OCC,EC,[1],1 µM
same,EC,[2],>4 µM
same,EC,[3],> 4 µM
COc1cccc(NC(=O)C(=O)c2c[nH]c3cc(F)ccc23)c1,EC,[31],0.2 µM
same,EC,[32],>4 µM
same,EC,[3],> 4 µM
Nc1ncnc2c1ccn2[C@@H]1O[C@H](CO)[C@@H](O)[C@H]1O [TUBERCIDIN],IC50,[5],131 nM
same,IC50,[7],76 nM
same,IC50,[8],256 nM
same,IC50,[28],790 nM
same,IC50,[9],44 nM
same,IC50,[30],43 nM
same,IC50,[10],13 nM
same,IC50,[12],82 nM
COc1ccc(NC(=O)C(=O)c2c[nH]c3ccccc23)cc1,EC,[31],0.001 µM
same,EC,[32],0.005 µM
same,EC,[3],0.2 µM

# From ChEMBL document CHEMBL4699613, “Synthesis and biological evaluation of indolylglyoxylamide bisphosphonates, antimitotic microtubule-targeting derivatives of indibulin with improved aqueous solubility” (Bioorg Med Chem Lett, 2020)
